Measured values published in patent publication US5246956A, “N-imidazolyl derivatives of substituted alkoxyimino tetrahydronaphthalenes and chromans having antithromboxane A2 activity” (Farmitalia Carlo Erba S.r.l., priority 1991, dated 1993).
Where two headings read alike, the source gives them in different places.

Legend:
TxB2 synthesis = TxB2 synthesis inhibition in vitro, in whole blood of normal rats; type: cell-based, rat (Sprague Dawley)
Protocol: (§1) The effects of a representative group of compounds of the invention were evaluated, in comparison with known compounds, on TxB2 synthesis inhibition in vitro, in whole blood of normal rates, and on TxA2 antagonism in a binding assay in washed human platelets.
TxB2 synthesis inhibition
Blood was withdrawn from the abdominal aorta of normal Sprague Dawley rats (Charles River Italy) under light ether anaesthesia. The blood was immediately divided in portions of 0.5 ml and distributed in glass tubes each containing a concentration of the test compound, or of the reference compounds.
Samples were then allowed to clot for 1 hour at 37° C., centrifuged at 3000 rpm for 10 min, and serum collected and stored at -20° C. until assayed.

[1] = biological target: T1, TXA2 receptor (washed human platelets) (Homo sapiens, UniProt P21731); experiment: Displacement of [^3 H]-SQ 29,548 binding to washed human platelets (TxA2 antagonism)
T1 construct: endogenous in cells; host or cells: washed human platelets from healthy volunteers
T1 sequence (P21731 1-343): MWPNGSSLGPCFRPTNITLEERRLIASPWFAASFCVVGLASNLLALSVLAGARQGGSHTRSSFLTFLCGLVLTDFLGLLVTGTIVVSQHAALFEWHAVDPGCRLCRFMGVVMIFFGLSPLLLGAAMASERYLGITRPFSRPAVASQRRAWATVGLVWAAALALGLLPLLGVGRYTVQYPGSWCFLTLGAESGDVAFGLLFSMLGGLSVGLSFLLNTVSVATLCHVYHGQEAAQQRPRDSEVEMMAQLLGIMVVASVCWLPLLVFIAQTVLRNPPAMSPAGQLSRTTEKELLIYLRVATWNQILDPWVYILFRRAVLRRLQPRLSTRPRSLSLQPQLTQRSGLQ
Protocol: as §1
Displacement of [^3 H]--SO 29,548 binding to washed human platelets.
Blood from healthy volunteers of both sexes who had not taken any medication for at least 10 days was collected into one-tenth volume of acid citrate dextrose containing indomethacin (28 μM). Platelet rich plasma (PRP), obtained by centrifugation of the blood at 200 xg for 20 min. was washed twic (1000 xg for 10 min). The platelets are then resuspended in Tyrode-Hepes buffer (pH 7.4) to a final concentration of […] and incubated for 0-60 min at 25° with [^3 H]--SQ 29,548 (5 nM). For displacement experiments various concentrations (10^-9 -10^-4 M) of competing ligands were added and incubated for 30 min at 25° C. […] After the incubation, 4 ml of ice-cold TRIS-HC1 buffer (10 mM, pH 7.4) was added to each tube and the reaction mixture was immediately filtered by suction through a Whatman GF/C glass filter disc which was washed 2 times with ice-cold TRIS-CH1 (4 ml) and counted for radioactivity by a Packard β-counter.
The binding data were analysed by computerized non-linear curve fitting using the Ligand program and expressed as ID50.

[2] = Rattus norvegicus, Table 2, whole blood of normal rats, 1 hour at 37° C., read-out: In vitro effect on TxB2 synthesis in normal rats, IC50 (whole blood)
[3] = Table 3, rat whole blood, read-out: TxB2 synthesis IC50

SMILES: CC1Oc2ccccc2/C(=N/OCCCCC(=O)O)C1n1ccnc1 (stereo not shown) [FCE 26365, 5-[[2-methyl-3-(1H-imidazol-1-yl)-2,3-dihydro-4H-1-benzopyranylidene]aminoxy]pentanoic acid]
- IC50 (TxB2 synthesis; [2]): 27 nM
- inhibition of platelet TxA2 synthase (TxB2 synthesis; in words): potent inhibitor of platelet TxA2 synthase

SMILES: COc1ccc2c(c1)/C(=N/OCCCCC(=O)O)C(n1ccnc1)C(c1ccc(OC)c(OC)c1)O2 (racemic) [FCE 26603, (+-)-(Z)-5-[[2-(3,4-dimethoxyphenyl)-3-(1H-imidazol-1-yl)-2,3-dihydro-6-methoxy-4H-1-benzopyranylidene]aminoxy]pentanoic acid]
- IC50 (TxB2 synthesis; [3]): 200 nM
- IC50 ([1]; Table 3, washed human platelets, read-out: ^3 H-SQ 29548 binding displacement IC50): 100 nM

SMILES: O=C(O)CCCCCO/N=C1/c2ccccc2OC(c2ccccc2)C1n1ccnc1 (racemic) [FCE 27016, (+-)-(Z)-6-[[2-phenyl-3-(1H-imidazol-1-yl)-2,3-dihydro-4H-benzopyranylidene]aminoxy]hexanoic acid]
- IC50 ([1]; Table 1, washed human platelets, 30 min at 25° C., read-out: ^3 H SQ 29548 binding displacement (washed human platelet) IC50): 33 nM
- TxA2 antagonism ([1]; platelets, in words): patent TxA2 antagonist
- affinity for the receptor compared with BM 13505 and BM 13177 ([1]; washed human platelets, in words): greater than those of compounds BM 13505 and BM 13177

SMILES: CC(=O)Oc1ccccc1C(=O)O [ASA, acetylsalicilic acid]
- IC50 (TxB2 synthesis; Rattus norvegicus, 1 h, read-out: In vitro effect on TxB2 synthesis in normal rats, IC50 (whole blood)): 31000 nM

SMILES: O=C(O)COc1ccc(CCNS(=O)(=O)c2ccccc2)cc1 [BM 13177]
- TxB2 synthesis IC50 (TxB2 synthesis; Table 3, rat whole blood): inactive

SMILES: O=C(O)c1ccc(OCCn2ccnc2)cc1 [Dazoxiben]
- IC50 (TxB2 synthesis; [2]): 1200 nM
- IC50 (TxB2 synthesis; [3]): 1200 nM
- ^3 H-SQ 29548 binding displacement IC50 ([1]; Table 3, washed human platelets): inactive

SMILES: O=C(O)Cc1ccc(CCNS(=O)(=O)c2ccc(Cl)cc2)cc1 [BM 13505]
- TxB2 synthesis IC50 (TxB2 synthesis; Table 3, rat whole blood): inactive
